T1: SsTsr3 (Saccharolobus solfataricus, UniProt Q9UWV6)
T1 sequence (Q9UWV6 1-166): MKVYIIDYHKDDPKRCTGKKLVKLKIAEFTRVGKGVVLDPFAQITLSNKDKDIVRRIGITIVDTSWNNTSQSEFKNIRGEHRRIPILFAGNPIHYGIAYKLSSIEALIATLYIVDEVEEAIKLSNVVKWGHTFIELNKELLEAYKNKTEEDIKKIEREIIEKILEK

T2: SsTsr3 (Sulfolobus solfataricus, UniProt Q9UWV6 1-166)
T2 sequence: T1 sequence (Q9UWV6 1-166)

B1: oligo-U9 RNA (ssRNA)
RNA: UUUUUUUUU

How the values were obtained:
[1] = biological target: SsTsr3 (Saccharolobus solfataricus, UniProt Q9UWV6, D63A); test: biochemical
Sequence of SsTsr3 (Saccharolobus solfataricus, UniProt Q9UWV6, D63A) (Q9UWV6 whole entry D63A): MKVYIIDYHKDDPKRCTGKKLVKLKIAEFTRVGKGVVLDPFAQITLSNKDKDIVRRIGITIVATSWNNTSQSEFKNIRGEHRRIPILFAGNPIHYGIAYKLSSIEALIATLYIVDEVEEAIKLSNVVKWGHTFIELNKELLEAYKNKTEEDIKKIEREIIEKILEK

[2] = biological target: T1, SsTsr3; test: tryptophan fluorescence quenching; format: binding
[3] = biological target: SsTsr3 (Saccharolobus solfataricus, UniProt Q9UWV6, T17A); test: biochemical
Sequence of SsTsr3 (Saccharolobus solfataricus, UniProt Q9UWV6, T17A) (Q9UWV6 whole entry T17A): as the sequence (Q9UWV6 whole entry D63A) above, with T17A, A63D counted along it

[4] = biological target: SsTsr3 (Saccharolobus solfataricus, UniProt Q9UWV6, T17D); test: biochemical
Sequence of SsTsr3 (Saccharolobus solfataricus, UniProt Q9UWV6, T17D) (Q9UWV6 whole entry T17D): as the sequence (Q9UWV6 whole entry D63A) above, with T17D, A63D counted along it

[5] = biological target: VdTsr3 (Vulcanisaeta distributa, UniProt E1QU22); conditions: co-purified endogenous E. coli SAM
Sequence of VdTsr3 (E1QU22 whole entry): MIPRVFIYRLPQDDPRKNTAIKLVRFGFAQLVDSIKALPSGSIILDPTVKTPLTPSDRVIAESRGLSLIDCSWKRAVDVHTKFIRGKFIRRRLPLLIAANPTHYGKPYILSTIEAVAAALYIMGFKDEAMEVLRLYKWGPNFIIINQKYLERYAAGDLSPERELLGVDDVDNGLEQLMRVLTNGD

[6] = biological target: T2, SsTsr3; test: fluorescence anisotropy

Molecule	Kd [1] [µM]	Kd [2] [µM]	Kd [3] [µM]	Kd [4] [µM]	X-ray crystal structure, 1.6 Å (Se-SAD) [5]	Kd [6] [µM]
C[S+](CC[C@H](N)C(=O)O)C[C@H]1O[C@@H](n2cnc3c(N)ncnc32)[C@H](O)[C@@H]1O (stereo partly drawn) [SAM]	11	6.5	3900	11200	VdTsr3 was purified and crystallized in complex with endogenous (E. coli) SAM	–
B1	–	–	–	–	–	6

— PMC4872110 (Nucleic Acids Research, 2016)
